Measured values as given in patent US20050118641A1, “Design Technique for Use in Engineering of Deamidation Rates of Peptides, Proteins, Hormones, and Peptide-Like, Protein-Like and Hormone-Like Molecules” (priority 2003, published 2005).
Each block holds one substance with its values, some of them ahead of it.

Experiments:
Format in all cases: physicochemical
[1] = Deamidation of insulin at Asn(B3)
Method: As an example, consider the sequence Phe-ValAsn(B3)GlnHis of insulin. This peptide deamidates at Asn(B3) with a half-time of 136 days at 37° C., pH 7.4 sodium acetate, 0.1% methyl paraben, 0.7% NaCl.

[2] = Deamidation of Asn pentapeptides GlyXxxAsnYyyGly (medians over Xxx)
Description: (§1) Median values for carboxyl side residues of Asn and Gln were used in these derivations. The measurements for Asn are the most reliable and are used for these derivations. […] The half-time of hydrolysis was assumed to be 8010 days, but may be faster or slower. Regardless of the derivation based on Asn, calculations of Gln based on these values are found to approximately agree with the currently available data.
(§2) The natural log of the median hydrolysis-corrected rate constants times 100 (s^−1) for the Asn and Gln pentapeptides as a function of carboxyl-side residue as computed from the experimental data are listed in Table 1. The first columns are (100)(ln(k)) and are directly proportional to the Arrhenius activation energy. The second columns are normalized to Gly. This leaves only the side-chain effects and also defines the effect of the Gly hydrogen side-chain or a similar atom with mostly steric effects in this β-position as zero.
For most Asn peptides the computed result should be within 10% or less of the experimental value in 37° C., pH 7.4, 0.15 M Tris-HCl buffer or similar conditions. Gln rates are more affected by hydrolysis and cannot be verified to as high an accuracy with the current data. For Gln peptides and long lived Asn peptides, correction for hydrolysis should be made. With a hydrolysis value of 8010 days: t1/2total=1/(1/8010+1/t1/2calculated)

[3] = Deamidation of Gln pentapeptides GlyXxxGlnYyyGly (medians over Xxx); details: Gln versus Asn peptide
Description: as §1, §2
This model for Asn deamidation is also applicable to Gln deamidation, although Gln deamidation rates have not been as well characterized. While there may be important differences in the functional group effects for the longer Gln chain, the steric effects are similar as illustrated in FIG. 6. […] The fundamental difference between Asn and Gln rates has been removed by subtracting the Gln values from GlyXxxGlnGlyGly and the Asn values from GlyXxxAsnGlyGly.

Substance: insulin
deamidation half-time at Asn(B3) ([1]; 37° C., pH 7.4 sodium acetate, 0.1% methyl paraben, 0.7% NaCl): 136 days
(100)ln(k) subtracted from the AsnGly value ([1]; converted from the 136 day half-time): 478.3

experimental deamidation half-time ([2]; 37° C., pH 7.4, 0.15 M Tris-HCl buffer): 46.2 days
Substance: GlyXxxAsnThrGly

difference between GlyXxxGlnGlyGly and GlyXxxAsnGlyGly, (100)ln(k) scale [3]: 644.8
Substance: GlyXxxGlnGlyGly

deamidation rate (50% chance of deamidating) [2]: about 1 day
Substance: GlyXxxAsnGlyGly
